Data published in patent US20190142953A1, “Dendrimer-Drug Conjugates, Hydrogel Compositions, and Methods” (Massachusetts Institute of Technology, priority 2016, published 2019).

How the values were obtained:
[1] = system: triple negative breast cancer (TNBC); assay: In vivo therapeutic efficacy, murine model of triple negative breast cancer
[2] = Release from dendrimer:dextran hydrogel scaffold; type: physicochemical
Text: The hydrogel matrix included a 10% solid content PAMAM dendrimer, generation 5, with 75% of the amines of its surface groups oxidized to alcohols (i.e., 32 amines and 96 alcohols), and a 10% solid content dextran aldehyde (10 kDa weight average molecule weight, with 50% oxidation to aldehydes).
Free doxorubicin was released in approximately 6 days, owing to the interactions between amine groups in the drug and aldehyde groups in the dextran. When amines in the doxorubicin structure were blocked with aconitic anhydride, the drug was released rapidly through the large pores of the hydrogel in 48 hours.

[3] = In vivo organ distribution after systemic and local delivery; set-up: species or system mice
Procedure: An analysis was conducted of the organ distribution of both the dendritic pro-drugs and free doxorubicin after local and systemic administration. Fluorescently labelled dendritic pro-drugs of Example 5 or free drug were injected systemically and their distributions were assessed after 24 hours.

[4] = system: healthy mammary epithelial cells; assay: Cytocidal effect in healthy cells; type: cell-based; settings: equivalent free doxorubicin concentration
Text: The next question studied was whether conjugated doxorubicin still maintained its cytotoxic effect.

EGFR [5] = target: T1, EGFR (Homo sapiens, UniProt P00533); assay: EGFR pathway activation (EGFR phosphorylation) by Western Blot; type: cell-based
T1 construct: endogenous in cells; host or cells: MDA-MB-468
Text: EGFR signaling pathway is believed to induce growth, differentiation, migration, adhesion, and cell survival through various interacting signaling pathways. It is believed to be critical for the design of chemotherapeutic pro-drugs utilizing this receptor to ensure this pathway was not triggered, leading to further cancer cell proliferation and survival, which could counteract the effects of the chemotherapeutic drug.
Actin was used as an internal control in all gels.

EGFR [6] = target: T1, EGFR; assay: EGF/EGFmp competition for the receptor, EGFR activation by Western Blot; type: cell-based; settings: mix of EGF and peptide, EGFR-overexpressing cancer cells
[7] = local in hydrogel scaffold, 72-hour post-implantation

| Compound | tumor shrinkage compared to untreated control ([1]; local in hydrogel, multiple doses (days 0, 11, 22), bioluminescence) | tumor reduction compared to untreated control ([1]; systemic administration) | time to release from hydrogel [2] | circulating level in blood ([3]; after local delivery) | level in blood (fluorescence) ([3]; after systemic administration) | accumulation in other organs [3, 7] | tumor accumulation, local therapy versus systemic administration [3, 7] | accumulation in other organs (spleen, heart, lungs, liver, kidneys) ([3]; systemic injection, 24 hours) | cell death [4] | EGFR phosphorylation / pathway activation (EGFR [5]) | blocking of EGF-mediated EGFR activation (EGFR [6]) |
| --- | --- | --- | --- | --- | --- | --- | --- | --- | --- | --- | --- |
| COc1cccc2c1C(=O)c1c(O)c3c(c(O)c1C2=O)C[C@@](O)(C(=O)CO)C[C@@H]3O[C@H]1C[C@H](N)[C@H](O)[C@H](C)O1 [free doxorubicin, doxorubicin] | 69% | did not exhibit significant tumor volume reduction | approximately 6 days | No circulating drug or dendritic pro-drug were observed in the blood | not statistically different than that of the untreated control | no accumulation was observed in other organs | 5 times | no significant accumulation was observed in any other organ | over 90% | – | – |
| NH2—CGGGGAEYLR-COOH (H-CGGGGAEYLR-OH) [EGFmp, EGF mimicking peptide modified with four glycine residues terminated with a cysteine] | – | – | – | – | – | – | – | – | – | none were observed | did not behave as an EGF antagonist |
